From paper PMC8869338 (Biosensors, 2022)

System: T1, RsD2HGDH
T1 construct: gene D2HGDH
Assay type: biochemical, Ralstonia solanacearum
Conditions: free enzyme; 100 µM DCIP, 200 µM PMS, 50 mM PB pH 7.0 (assay of b15), 25 °C

SMILES: O=C(O)CC[C@@H](O)C(=O)O [D2HG]
- Km: 433 µM
